The target of assay [1] is rat striatal A2A receptors. Particulars: cited from earlier work.
Assay [2] has as its target T1, recombinant human native-A1 adenosine receptor (Homo sapiens, UniProt P30542).
T1 sequence (P30542 1-326): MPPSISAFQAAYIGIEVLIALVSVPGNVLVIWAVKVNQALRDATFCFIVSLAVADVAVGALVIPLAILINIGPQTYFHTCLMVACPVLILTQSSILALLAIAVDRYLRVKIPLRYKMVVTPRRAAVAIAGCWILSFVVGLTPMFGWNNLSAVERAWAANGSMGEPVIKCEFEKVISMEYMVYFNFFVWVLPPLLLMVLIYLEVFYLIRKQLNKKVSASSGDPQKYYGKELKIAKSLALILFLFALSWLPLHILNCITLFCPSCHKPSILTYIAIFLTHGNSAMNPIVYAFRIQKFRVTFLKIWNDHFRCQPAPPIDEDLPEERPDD
Put plainly: Competition for radioligand binding, native-A1. The following applies: competition with 1 nM ^125 I-ABA. Also noted: expressed in transfected cells. The method, then: (§1) The experiments were performed in triplicate with 10 μg membrane protein in a total volume of 0.1 mL with 0.5 U/mL adenosine deaminase, with and without 5 mM MgCl2 for agonist and antagonist binding, respectively. […] Bmax and KD were calculated by nonlinear least squares interpolation for single or two-site binding models. K1 values for different compounds were derived from IC50 values. Data from replicate experiments were tabulated as means ± SEM.
(§2) Twelve compounds were evaluated to determine their potencies to compete for radioligand binding to native- and H/F-A1 or A2A receptors.

Assay [3] has as its target T2, recombinant human H/F-A1 adenosine receptor (Homo sapiens, UniProt P30542).
T2 construct: expressed in transfected cells
T2 sequence (P30542 with tags, fused parts or gaps): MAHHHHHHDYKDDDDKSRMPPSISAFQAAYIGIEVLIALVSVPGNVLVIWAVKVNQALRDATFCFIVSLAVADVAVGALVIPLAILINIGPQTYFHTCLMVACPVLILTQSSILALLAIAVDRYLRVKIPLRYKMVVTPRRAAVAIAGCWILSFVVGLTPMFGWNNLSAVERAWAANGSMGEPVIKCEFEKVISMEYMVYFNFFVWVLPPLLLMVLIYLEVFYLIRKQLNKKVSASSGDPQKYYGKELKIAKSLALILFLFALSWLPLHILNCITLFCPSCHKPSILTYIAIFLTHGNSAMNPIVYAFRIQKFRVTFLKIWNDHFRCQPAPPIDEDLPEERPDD
Kind of assay: Competition for radioligand binding, H/F-A1. The following applies: competition with 1 nM ^125 I-ABA. As for the experimental part: as §1, §2

Another assay concerns native A2A receptors. Put plainly: Effect of GTPγS on agonist radioligand binding to native A2A. The following applies: Sf9 cell membranes. Also noted: species or system human.
The next assay addresses T3, A2B receptors (Homo sapiens, UniProt P29275).
T3 construct: expressed in transfected cells; host or cells: HEK-293
T3 sequence (P29275 1-332): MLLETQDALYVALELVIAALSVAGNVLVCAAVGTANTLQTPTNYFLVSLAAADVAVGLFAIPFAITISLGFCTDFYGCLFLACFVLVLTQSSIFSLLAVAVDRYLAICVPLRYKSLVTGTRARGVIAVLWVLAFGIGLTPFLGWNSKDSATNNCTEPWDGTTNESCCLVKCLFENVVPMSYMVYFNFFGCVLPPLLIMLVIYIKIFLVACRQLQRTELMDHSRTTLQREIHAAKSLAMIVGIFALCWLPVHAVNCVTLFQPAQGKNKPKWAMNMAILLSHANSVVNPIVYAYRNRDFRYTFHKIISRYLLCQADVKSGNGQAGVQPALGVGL
Put plainly: Inhibition of NECA-stimulated cyclic AMP accumulation in A2B transfected HEK-293 cells (Schild analysis). In kind it is cell-based. The following applies: read-out: pA2 (antagonism, Schild analysis) (converted). The source says:
The radioligands used to label the A1 and A2A receptors are commonly used and are commercially available. However, there are no reports in the literature of radioligands useful for detecting A2B receptors. […] Based on this observation [^3 H]DPX was custom triiated by NEN.

Assay [4] in a line: Block of ^125 I-ABA binding to lung membranes.
Assay [5] relates to A3 AR. Put plainly: A3 AR selectivity of radioligand. The assay is classed as binding. The text has this: These receptors can be labeled nonselectively by agonist radioligands that also label A1 AR.
For assay [6], the system named is A3 AR. Kind of assay: Activation of A3 AR. The following applies: >μM levels.
The subject of assay [7] is untransfected CHO-K1 cells. Kind of assay: Cyclic AMP levels in untransfected CHO-K1 cells. In kind it is cell-based. Particulars: concentrations up to 1 μM.
Experimental: (§3) CHO-K1 cells were incubated without or with 100 mg/mL pertussis toxin. […] Five-hundred microliters of the supernatants were removed, acetylated, and assayed for cyclic AMP by automated radioimmunoassay.
Assay [8] deals with H/F-A1 adenosine receptors. Kind of assay: Inhibition of cyclic AMP accumulation, CHO-K1 cells with H/F-A1. In kind it is cell-based, human.
Experimental: as §3
Assay [9] addresses T2, recombinant human H/F-A1 adenosine receptor. Kind of assay: Saturation radioligand binding, H/F-A1 (CHO-K1 membranes).
Assay [10] addresses T1, recombinant human native-A1 adenosine receptor. Put plainly: Saturation radioligand binding, native-A1 (CHO-K1 membranes).
The target in another assay is T4, A2B adenosine receptors (Homo sapiens, UniProt P29275).
T4 construct: made in house
T4 sequence (P29275 1-332): T3 sequence (P29275 1-332)
Kind of assay: A2B radioligand binding assay. The following applies: FIG. 6.

Assay [11] addresses recombinant human H/F-A2A adenosine receptor (Homo sapiens, UniProt P29274). Put plainly: Competition for radioligand binding, H/F-A2A.
In assay [12] the target is recombinant human native-A2A adenosine receptor (Homo sapiens, UniProt P29274). Put plainly: Competition for radioligand binding, native-A2A.
Setting [13] is: ^125 I-ABA: high affinity sites.
Setting [14] is: competition with 70 nM [^3 H]NECA.
Where [15] appears, read: read-out: K1, competition with 70 nM [^3 H]NECA.

Like-named read-outs stand apart in the source and are kept apart here.

Here are results for 16 molecules from patent US5854081A, “Stable expression of human A2B adenosine receptors, and assays employing the same” (The University of Patent Foundation, priority 1996, dated 1998).

Chain of recombinant human native-A2A adenosine receptor (P29274 whole entry): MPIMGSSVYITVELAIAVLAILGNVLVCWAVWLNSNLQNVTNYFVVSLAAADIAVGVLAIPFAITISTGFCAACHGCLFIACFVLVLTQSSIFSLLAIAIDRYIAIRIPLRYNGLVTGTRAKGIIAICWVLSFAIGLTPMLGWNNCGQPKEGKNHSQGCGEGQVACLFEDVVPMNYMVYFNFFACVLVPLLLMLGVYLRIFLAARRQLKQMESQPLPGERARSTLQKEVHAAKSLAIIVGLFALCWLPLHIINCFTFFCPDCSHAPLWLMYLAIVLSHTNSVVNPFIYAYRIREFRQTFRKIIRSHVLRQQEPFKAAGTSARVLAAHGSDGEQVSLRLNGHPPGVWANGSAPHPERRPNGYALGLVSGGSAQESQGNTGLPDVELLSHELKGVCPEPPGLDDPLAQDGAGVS
Chain of recombinant human H/F-A2A adenosine receptor (P29274 with tags, fused parts or gaps): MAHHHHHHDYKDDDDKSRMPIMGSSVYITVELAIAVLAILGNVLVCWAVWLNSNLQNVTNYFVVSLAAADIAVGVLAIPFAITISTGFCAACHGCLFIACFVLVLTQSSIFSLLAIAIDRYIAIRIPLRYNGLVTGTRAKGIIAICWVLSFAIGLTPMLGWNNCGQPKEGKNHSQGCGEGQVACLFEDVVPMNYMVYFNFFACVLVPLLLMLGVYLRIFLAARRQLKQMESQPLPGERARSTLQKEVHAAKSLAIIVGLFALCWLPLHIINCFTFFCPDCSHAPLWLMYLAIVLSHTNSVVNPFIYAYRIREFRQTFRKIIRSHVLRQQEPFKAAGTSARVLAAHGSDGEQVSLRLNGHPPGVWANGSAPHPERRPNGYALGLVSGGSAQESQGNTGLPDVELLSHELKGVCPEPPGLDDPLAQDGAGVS

Broadly, the Kd is the equilibrium constant for the complex coming apart. In the case of `CCNC(=O)[C@H]1O[C@@H](n2cnc3c(N)nc(NCCc4ccc(CCC(=O)O)cc4)nc32)[C@H](O)[C@@H]1O` [[^3 H]CGS21680], the Kd is 0.0039 µM in [1] (G protein coupled rat striatal A2A receptors) and 0.051 µM in assay [1] (G protein uncoupled rat striatal A2A receptors).

For the molecule `Cn1c(=O)c2[nH]cnc2n(C)c1=O` [theophylline], the “affinity for A3 AR” value in the assay on rat A3AR and in the assay with sheep A3AR was “very low affinity” in each case.

`Cn1c(=O)c2[nH]c(-c3ccc(S(=O)(=O)O)cc3)nc2n(C)c1=O` [8-SPT, 8-P-sulfophenyltheophylline]: the “NH (Hill coefficient)” value in assay [2] is listed as 0.87 ± 0.05; in [3], 0.84.

Regarding `Nc1nc2c(ncn2[C@@H]2O[C@H](COP(=O)(O)OP(=O)(O)OP(O)(O)=S)[C@@H](O)[C@H]2O)c(=O)[nH]1` [GTPγS], in the assay with H/F-A1 receptors, the “reduction in number of high affinity agonist (^125 I-ABA) binding sites by GTPγS” value was “large reduction”. Also, the “reduction of [^3 H]CGS21680 / [^3 H]NECA binding by GTPγS” value in the assay with native A2A receptors is “reduced only slightly”.

Consider `CCn1c(=O)c2[nH]c(-c3ccccc3)nc2n(CC)c1=O` [1,3-diethyl-8-phenylxanthine (DPX), 1,3-diethyl-8-phenylxanthine], for which the Kb at A2B receptors is 0.03 µM.

Regarding `CC(C)N(C)c1nc2c(N[C@@H]3CC4CC3CC4O)ncnc2n1C` (stereo partly shown) [WRC-0571], the “block of ^125 I-ABA binding to lung membranes” value in assay [4] (1 μM) is given as “not blocked”.

As to `CCCn1c(=O)c2[nH]c(-c3ccc(OCC(=O)O)cc3)nc2n(Cc2ccc(N)c([125I])c2)c1=O` [^125 I-ABOPX], the selectivity of radioligand result in the assay on A3 AR [5] is “A3 AR-selective”.

Take `CCNC(=O)[C@H]1O[C@@H](n2cnc3c(N)ncnc32)[C@H](O)[C@@H]1O` [NECA, 5'-N-ethylcarboxamidondenosine]: the results for the “NH (Hill coefficient)” value in assay [2] and in [3] were 0.95 ± 0.09 and 0.97, respectively.

In the case of `CCNC(=O)[C@H]1O[C@@H](n2cnc3c(N)nc(NCCc4ccc(CCC(=O)O)cc4)nc32)[C@H](O)[C@@H]1O` [CGS21680, 2-(r-(s-carboxyethyl)phen-ethylamino)-5'-N-ethylcarboxamidondenosine], the “activation of A3 AR” value in the assay with A3 AR [6] was “activate A3 AR”.

With `OC[C@H]1O[C@@H](n2cnc3c(NC4CCCC4)ncnc32)[C@H](O)[C@@H]1O` [CPA, N^6 -cyclopentyladenosine], the “effect on cyclic AMP levels” value in assay [7] is “no effect”. The “inhibition of cyclic AMP accumulation” value in assay [8] is listed as “potently inhibited”. For the same molecule, the “inhibition of cyclic AMP accumulation after pertussis toxin” value in [8] (preincubated with pertussis toxin) is listed as “abolished”. Moreover, the “NH (Hill coefficient)” value in assay [2] amounted to 0.93 ± 0.16; in assay [3] it was 0.79.

Consider `Nc1ccc(CNc2ncnc3c2ncn3[C@@H]2O[C@H](CO)[C@@H](O)[C@H]2O)cc1[125I]` [^125 I-ABA], for which the Bmax is on record as 3.3 ± 0.5 pmol/mg protein in [9] and 3.5 ± 0.8 pmol/mg protein in assay [10].

Consider `CCn1c(=O)c2[nH]c(-c3ccccc3)nc2n(CC)c1=O` [[^3 H]DPX], for which the “detection of A2B receptors by radioligand binding” value on A2B adenosine receptors is “first successful detection of A2B adenosine receptors by radioligand binding”.

As for `CCCn1c(=O)c2[nH]c(-c3ccc(OCC(=O)NCCN)cc3)nc2n(CCC)c1=O` [XAC, xanthine amino congenen], the “NH (Hill coefficient)” value in assay [2] is 1.12 ± 0.11; in assay [3], 0.96.

For the molecule `Nc1ccc(CNc2ncnc3c2ncn3[C@@H]2O[C@H](CO)[C@@H](O)[C@H]2O)cc1I` [^125 I-ABA], the Kd in assay [9] (setting [13]) stood at 0.00098 ± 0.00016 µM; in [10] (setting [13]), 0.102 ± 3e-05 µM.

`CCCn1c(=O)c2nc(-c3ccc(OCC(=O)O)cc3)[nH]c2n(Cc2ccc(N)c(I)c2)c1=O` [1ABOPX, 3-iodoaminobenzyl-1-propyl-8-p-(oxyacetate)-phenylxanthine]: the entries for the “NH (Hill coefficient)” value in assay [11] (setting [14]) and in [12] (setting [14]) were 0.94 ± 0.14 and 0.84 ± 0.17, respectively. Besides, the Ki came to 0.022 ± 0.0036 µM in assay [11] (setting [15]) and 0.0237 ± 0.0075 µM in assay [12] (setting [15]).

For the molecule `CNC(=O)[C@H]1O[C@@H](n2cnc3c(NCc4cccc(I)c4)ncnc32)[C@H](O)[C@@H]1O` [IB-MECA], the “block of ^125 I-ABA binding to lung membranes” value in assay [4] (concentration not given) is given as “blocked”.
